Assay: photoluminescence quantum yield (fraction); solvent given as SMILES
[1] = in O=P(c1ccccc1)(c1ccccc1)c1ccccc1Oc1ccccc1P(=O)(c1ccccc1)c1ccccc1

With `CN(C)c1ccc(/C=C/c2ccccn2)cc1` the photoluminescence quantum yield (in C1CCCCC1) was 0.017, the photoluminescence quantum yield (in C1CCOC1) was 0.042 and the photoluminescence quantum yield (in C1COCCO1) was 0.031. The photoluminescence quantum yield (in CC#N) was 0.048, the photoluminescence quantum yield (in CC(C)O) was 0.024 and the photoluminescence quantum yield (in CCCCCC) was 0.016. It also gave a photoluminescence quantum yield (in CCCCCCC) of 0.017, a photoluminescence quantum yield (in CCCCO) of 0.026 and a photoluminescence quantum yield (in CCO) of 0.032. It also gave a photoluminescence quantum yield (in CCOC(C)=O) of 0.03, a photoluminescence quantum yield (in CCOCC) of 0.022 and a photoluminescence quantum yield (in CN(C)C=O) of 0.051. It also gave a photoluminescence quantum yield (in CO) of 0.019, a photoluminescence quantum yield (in CS(C)=O) of 0.054 and a photoluminescence quantum yield (in O) of 0.015.
With `CCN(CC)c1ccc2c(-c3ccccc3C(=O)O)c3c([o+]c2c1)/C(=C/c1ccc(N(C)C)s1)CCC3` the photoluminescence quantum yield (in ClCCl) was 0.04.
`CCCCc1ccc2c(c1)c1ccc3cccc4c3c1c1c2c2cccc3ccc5c6cc(CCCC)ccc6c4c1c5c32` gave a photoluminescence quantum yield (in ClCCl) of 0.31.
Compound `Cc1cc(C)c(B(c2ccc(N(c3ccccc3)c3ccccc3)cc2)c2c(C)cc(C)cc2C)c(C)c1` has a photoluminescence quantum yield (in Cc1ccccc1) of 0.91.
`CC1(C)Cc2c(c3ccccc3c3nc4c5c(c6ccccc6c4nc23)OC(C)(C)C5)O1` gave a photoluminescence quantum yield (in C1CCCCC1) of 0.42, a photoluminescence quantum yield (in C1COCCO1) of 0.47 and a photoluminescence quantum yield (in CC#N) of 1. It also gave a photoluminescence quantum yield (in CC(C)O) of 1, a photoluminescence quantum yield (in CCCCCC) of 0.27 and a photoluminescence quantum yield (in CO) of 1. It also gave a photoluminescence quantum yield (in ClC(Cl)Cl) of 0.53 and a photoluminescence quantum yield (in c1ccccc1) of 0.52.
Compound `Cc1ccccc1-c1nc(-c2ccccc2C)nc(-c2ccc(N3c4ccccc4C4(c5ccccc5-c5ccccc54)c4ccccc43)cc2C)n1` has a photoluminescence quantum yield [1] of 0.62.
Compound `O=S1(=O)C(c2ccsc2)=C(c2ccsc2)c2ccccc21` has a photoluminescence quantum yield (in C1CCOC1) of 0.005.
Work on `Cn1c(=O)c(/N=N/c2ccc(Nc3ccccc3)c(S(=O)(=O)O)c2)c(O)c2ccccc21` yielded a photoluminescence quantum yield (in CS(C)=O) of 0.04.
For `CCCCCCCCOc1ccc(-c2c3c4n(c(-c5ccc(OCCCCCCCC)cc5)c3c3n2[B-](F)(F)[n+]2c(ccc5cc(C(C)(C)C)ccc52)C=3C#N)[B-](F)(F)[n+]2c(ccc3cc(C(C)(C)C)ccc32)C=4C#N)cc1`, the photoluminescence quantum yield (in ClC(Cl)Cl) was 0.59.
With `Cc1ccc(-c2nc(-c3ccc(O)cc3)[nH]c2-c2ccc(C)cc2)cc1` the photoluminescence quantum yield (in CO) was 0.2.
Compound `CC[n+]1nc2cc3c4c(c2c2cc(C)ccc21)CCCN4CCC3` has a photoluminescence quantum yield (in O) of 0.27.
Work on `CN(C)c1ccc(C#Cc2ccc(-c3nc(C#N)c(C#N)n3C)cc2)cc1` yielded a photoluminescence quantum yield (in C1CCCCC1) of 0.84, a photoluminescence quantum yield (in CC#N) of 0.005 and a photoluminescence quantum yield (in CO) of 0.003. The photoluminescence quantum yield (in ClC(Cl)Cl) was 0.88.
Compound `O=[N+]([O-])c1ccc(C#Cc2ccc3ccccc3c2)cc1` has a photoluminescence quantum yield (in ClC(Cl)Cl) of 0.005 and a photoluminescence quantum yield (in ClCCl) of 0.006.
Compound `c1ccc(-c2nc(-c3ccccc3)nc(-c3ccc(-n4c5ccccc5c5cc(-n6c7ccccc7c7ccccc76)ccc54)cc3)n2)cc1` has a photoluminescence quantum yield (in Cc1ccccc1) of 0.72.
In the case of `CCCCCCC1(CCCCCC)c2cc(-c3nc(-c4ccc5c(c4)C(CCCCCC)(CCCCCC)c4cc(N6c7ccccc7Sc7ccccc76)ccc4-5)nc(-c4ccc5c(c4)C(CCCCCC)(CCCCCC)c4cc(N6c7ccccc7Sc7ccccc76)ccc4-5)n3)ccc2-c2ccc(N3c4ccccc4Sc4ccccc43)cc21`, the photoluminescence quantum yield (in C1CCOC1) is reported as 0.01, the photoluminescence quantum yield (in CCCCCC) is reported as 0.04 and the photoluminescence quantum yield (in Cc1ccccc1) is reported as 0.02. It also gave a photoluminescence quantum yield (in ClCCl) of 0.003.
For `N#Cc1cc(C#N)c(-n2c3ccccc3c3cc(-c4cccc5c4c4ccccc4n5-c4cc(-n5c6ccccc6c6ccccc65)c(C#N)cc4C#N)ccc32)cc1-n1c2ccccc2c2ccccc21`, the photoluminescence quantum yield [1] was 0.66.
`O=Cc1cc(O)ccc1O` showed a photoluminescence quantum yield (in C1CCOC1) of 0.0001, a photoluminescence quantum yield (in C1COCCO1) of 0.0001 and a photoluminescence quantum yield (in CC#N) of 0.0001. It also gave a photoluminescence quantum yield (in CC(C)=O) of 0.01, a photoluminescence quantum yield (in CCCO) of 0.03 and a photoluminescence quantum yield (in CCO) of 0.04. For the same compound, the photoluminescence quantum yield (in CN(C)C=O) was 0.06, the photoluminescence quantum yield (in CN(C)P(=O)(N(C)C)N(C)C) was 0.14 and the photoluminescence quantum yield (in CNC=O) was 0.14. For the same compound, the photoluminescence quantum yield (in CO) was 0.0001, the photoluminescence quantum yield (in CS(C)=O) was 0.17 and the photoluminescence quantum yield (in NC=O) was 0.07.
In the case of `F[B-]1(F)n2c(Oc3ccccc3)c(Cl)c(Br)c2C(Oc2ccccc2)=C2C(Br)=C(Cl)C(Oc3ccccc3)=[N+]21`, the photoluminescence quantum yield (in ClCCl) is reported as 0.68.
With `CCCCCCCCCCCCN1C(=O)c2ccc3c4ccc5c6c(ccc(c7ccc(c2c37)C1=O)c64)C(=O)N(CCCCCCCCCCCC)C5=O` the photoluminescence quantum yield (in CN(C)C=O) was 1.
`CCOC(=O)c1ccccc1-c1c2ccc(=O)cc-2oc2cc(OC(=O)[C@H](CSCc3ccc(C)cc3)NC(=O)OC(C)(C)C)ccc12` showed a photoluminescence quantum yield (in C1CCOC1) of 0.006, a photoluminescence quantum yield (in CC#N) of 0.004 and a photoluminescence quantum yield (in CCO) of 0.043. The photoluminescence quantum yield (in CS(C)=O) was 0.025.
Compound `CCCCCCCCc1ccc(-n2c3c4ccccc4nc(-c4ccc(C#N)cc4)c3c3c2c2c(-c4ccc(C#N)cc4)nc4ccccc4c2n3-c2ccc(CCCCCCCC)cc2)cc1` has a photoluminescence quantum yield (in ClC(Cl)Cl) of 0.14.
Work on `CCN1C(=CC2=C([O-])C(=Cc3[se]c4ccccc4[n+]3CC)C2=O)[Se]c2ccccc21` yielded a photoluminescence quantum yield (in CC(C)O) of 0.14.
With `C[Si]1(c2ccccc2)C(c2ccc3c(c2)c2ccccc2n3-c2ccccc2)=C(c2ccccc2)C(c2ccccc2)=C1c1ccc2c(c1)c1ccccc1n2-c1ccccc1` the photoluminescence quantum yield (in C1CCOC1) was 0.04.
`C(=C\c1ncc(-c2ccc(OCc3ccccc3)c(OCc3ccccc3)c2)o1)/c1cccc(N2CCCC2)c1` showed a photoluminescence quantum yield (in ClCCl) of 0.35.
`c1ccc(-n2c(-c3ccc(N(c4ccc(-c5ccc(N(c6ccc(-c7nc8c9ccccc9c9ccccc9c8n7-c7ccccc7)cc6)c6ccc(-c7nc8c9ccccc9c9ccccc9c8n7-c7ccccc7)cc6)cc5)cc4)c4ccc(-c5nc6c7ccccc7c7ccccc7c6n5-c5ccccc5)cc4)cc3)nc3c4ccccc4c4ccccc4c32)cc1` gave a photoluminescence quantum yield (in ClCCl) of 0.206.
`N#CC(C#N)=Cc1nc2ccc(C#Cc3ccc(N(c4ccccc4)c4ccccc4)cc3)cc2s1` gave a photoluminescence quantum yield (in Cc1ccccc1) of 0.07.
`Oc1ccccc1/C=N/CC/N=C/c1ccccc1O` gave a photoluminescence quantum yield (in CC#N) of 0.053.
`COC(=O)c1ccc2c3ccc(C(=O)OC)c4c(C(=O)OC)ccc(c5ccc(C(=O)OC)c1c25)c43` gave a photoluminescence quantum yield (in C1COCCO1) of 0.99, a photoluminescence quantum yield (in CC#N) of 0.97 and a photoluminescence quantum yield (in CC(C)=O) of 0.99. For the same compound, the photoluminescence quantum yield (in CC(C)O) was 0.96, the photoluminescence quantum yield (in CCCCO) was 0.96 and the photoluminescence quantum yield (in CN(C)C=O) was 0.95. For the same compound, the photoluminescence quantum yield (in CO) was 0.99 and the photoluminescence quantum yield (in ClC(Cl)Cl) was 0.83.
For `CC1=CC(C)=[N+]2C1=C(c1ccc3cccnc3n1)c1c(C)cc(C)n1[B-]2(F)F`, the photoluminescence quantum yield (in CC#N) was 0.04, the photoluminescence quantum yield (in CCCCCC) was 0.08 and the photoluminescence quantum yield (in CO) was 0.16. The photoluminescence quantum yield (in ClC(Cl)Cl) was 0.07 and the photoluminescence quantum yield (in ClCCl) was 0.06.
Compound `CC1(C)c2ccccc2N(c2cc3c4ccccc4n4c5ccccc5c(c2)c34)c2ccccc21` has a photoluminescence quantum yield [1] of 0.95.
With `C(=C\c1ccc(-c2ccc(/C=C/c3ccc(-n4c5ccccc5c5ccccc54)cc3)s2)s1)/c1ccc(-n2c3ccccc3c3ccccc32)cc1` the photoluminescence quantum yield (in C1CCOC1) was 0.1, the photoluminescence quantum yield (in CC#N) was 0.09 and the photoluminescence quantum yield (in CC(C)=O) was 0.09. For the same compound, the photoluminescence quantum yield (in CN(C)C=O) was 0.11 and the photoluminescence quantum yield (in Cc1ccccc1) was 0.11.
Compound `N#CC(/N=C/c1c(O)ccc2ccccc12)=C(C#N)/N=C/c1c(O)ccc2ccccc12` has a photoluminescence quantum yield (in CC#N) of 0.37.
Compound `C[C@]12SC(=O)C=C1c1nc(-c3ccc(O)cc3)[nH]c1C1=CC(=O)S[C@@]12C` has a photoluminescence quantum yield (in CC#N) of 0.16.
With `CCOCCOCCOC(=O)/C=C/C1=CC2=C(c3c(C)cc(C)cc3C)c3cccn3[B-](F)(F)[N+]2=C1` the photoluminescence quantum yield (in ClCCl) was 0.35.
With `N#Cc1ccc(/C=C/c2ccc3ccc4cccc5ccc2c3c45)cc1` the photoluminescence quantum yield (in CC1CCCCC1) was 0.8, the photoluminescence quantum yield (in CC#N) was 0.26 and the photoluminescence quantum yield (in CO) was 0.26. The photoluminescence quantum yield (in Cc1ccccc1) was 0.79 and the photoluminescence quantum yield (in ClC(Cl)Cl) was 0.3.
Work on `COC(=O)COc1ccc(/C=C/C2=[N+]3C(=C(c4ccc(N(C)C)cc4)c4c(C)cc(C)n4[B-]3(F)F)C(C)=C2)cc1` yielded a photoluminescence quantum yield (in CO) of 0.67.
`Cc1cc2c(o1)=CC1=C(C(F)(F)F)c3cc4oc(C)cc4n3[B-](F)(F)[N+]=21` showed a photoluminescence quantum yield (in C1CCOC1) of 0.92, a photoluminescence quantum yield (in CC#N) of 0.84 and a photoluminescence quantum yield (in CCO) of 0.87. For the same compound, the photoluminescence quantum yield (in CO) was 0.7, the photoluminescence quantum yield (in Cc1ccccc1) was 0.97 and the photoluminescence quantum yield (in ClC(Cl)Cl) was 0.98.
In the case of `F[Si-](F)(c1ccccc1)(c1ccccc1)c1c2ccccc2cc2ccccc12`, the photoluminescence quantum yield (in C1CCOC1) is reported as 0.76.
For `F[B-]1(F)Oc2c(-c3cccc4c3O[B-](F)(F)[n+]3c(-c5ccccc5)c(-c5ccccc5)n(-c5ccc(C(F)(F)F)cc5)c3-4)cccc2-c2n(-c3ccc(C(F)(F)F)cc3)c(-c3ccccc3)c(-c3ccccc3)[n+]21`, the photoluminescence quantum yield (in C1CCOC1) was 0.68.
In the case of `CC1(C)C(/C=C/C2=C(c3ccc(C(=O)O)cc3)C(=C/C=C3/N(CCCCS(=O)(=O)[O-])c4ccc5ccccc5c4C3(C)C)/CCC2)=[N+](CCCCS(=O)(=O)[O-])c2ccc3ccccc3c21`, the photoluminescence quantum yield (in CO) is reported as 0.092.
Compound `CCN(CC)c1ccc2c(-c3ccccc3C(=O)O)c3c([o+]c2c1)/C(=C/c1nc(C)n2ccccc12)CCC3` has a photoluminescence quantum yield (in ClCCl) of 0.3.
`CC(C)(C)c1ccc(-c2cc(-c3ccc(-c4cc(-c5ccc(C(C)(C)C)cc5)c(C#N)s4)s3)sc2C#N)cc1` showed a photoluminescence quantum yield (in ClCCl) of 0.17.
`CCOC(CN1C(=O)C2=C(c3cc4cc(C(C)(C)C)cc(C(C)(C)C)c4o3)N(CC(OCC)OCC)C(=O)C2=C1c1cc2cc(C(C)(C)C)cc(C(C)(C)C)c2o1)OCC` showed a photoluminescence quantum yield (in ClC(Cl)Cl) of 0.75.
`COc1ccc(-c2nc(-c3ccc(C#N)cc3)[nH]c2-c2ccc(OC)cc2)cc1` gave a photoluminescence quantum yield (in CO) of 0.6.
Work on `CCN(C)c1ccc(C2=C3C(C)=CC(C)=[N+]3[B-](F)(F)n3c(C)cc(C)c32)cc1` yielded a photoluminescence quantum yield (in CO) of 0.44.
For `CC1(C)C(/C=C/C=C/c2cc3ccc(O)cc3oc2=O)=[N+](CCCS(=O)(=O)[O-])c2ccc(S(=O)(=O)O)cc21`, the photoluminescence quantum yield (in CCO) was 0.01, the photoluminescence quantum yield (in CS(C)=O) was 0.017 and the photoluminescence quantum yield (in O) was 0.011.
In the case of `Cc1ccc(-n2c(-c3ccccc3NS(=O)(=O)c3ccc(C)cc3)nc3c4ccccc4c4ccccc4c32)cc1`, the photoluminescence quantum yield (in Cc1ccccc1) is reported as 0.007.
`CCCCCCCCC1(CCCCCCCC)c2cc(-c3ccccc3)ccc2-c2ccc(-c3ccccc3)cc21` showed a photoluminescence quantum yield (in ClC(Cl)Cl) of 0.85.
For `C(=C\c1cc(-c2ccccc2)c(/C=C/c2ccc(N(c3ccccc3)c3ccccc3)cc2)cc1-c1ccccc1)/c1ccc(N(c2ccccc2)c2ccccc2)cc1`, the photoluminescence quantum yield (in ClCCl) was 0.8.

— the Deep4Chem optical property database
